In US8193189B2, “Quinoxaline derivatives as tyrosine kinase activity inhibitors” (Novartis AG, priority 2007, dated 2012) one finds IC50 data, which are given here for 15 molecules.

The IC50 is the point on the concentration scale where inhibition reaches its midpoint.

The subject of test [1] is JAK/STAT pathway (JAK1/JAK2-dependent nuclear translocation of STAT1-GFP). The experiment in a line: Inhibition of the JAK/STAT pathway: IFN-γ stimulated nuclear translocation of STAT1-GFP in HT1080 fibrosarcoma cells. The format is cell-based. Particulars: Homo sapiens, HT-1080; HT1080 STAT1-GFP cells, 100 ng/ml IFN-γ 2 hours, compound added 30 min before; read-out: STAT1translo IC50. In a few lines: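 Readout is the nuclear-minus-cytoplasmic GFP-STAT1 intensity, imaged at 10× using Hoechst-defined nuclear masks over at least 1000 cells/well. Stably transfected HT1080 fibrosarcoma cells were pretreated 30 min with compound (final 0.003–10 μM, 0.1% DMSO) before IFN-γ challenge.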

The next test concerns the target T1, GST-JAK1(866-1154) (Homo sapiens, UniProt P23458).
T1 construct: GST-JAK1(866-1154); made in house
The experiment in a line: EPK JAK-family kinases profiling assay (Caliper mobility shift), JAK1. The settings on record: ATP 40 μM, 50 nM kinase. The class given is biochemical. In a few lines: (§1)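 Turnover was read as substrate/product ratio after mobility-shift capillary-like separation of each reaction, run for 60 min at 30 °C with GST-tagged kinase domain, labelled peptide and ATP, and terminated with EDTA stop buffer.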

In the next test the target is T2, GST-JAK2(808-1132) (Homo sapiens, UniProt O60674).
T2 construct: GST-JAK2(808-1132); purchased Invitrogen (Carlsbad, USA) #4288
T2 sequence (O60674 808-1132): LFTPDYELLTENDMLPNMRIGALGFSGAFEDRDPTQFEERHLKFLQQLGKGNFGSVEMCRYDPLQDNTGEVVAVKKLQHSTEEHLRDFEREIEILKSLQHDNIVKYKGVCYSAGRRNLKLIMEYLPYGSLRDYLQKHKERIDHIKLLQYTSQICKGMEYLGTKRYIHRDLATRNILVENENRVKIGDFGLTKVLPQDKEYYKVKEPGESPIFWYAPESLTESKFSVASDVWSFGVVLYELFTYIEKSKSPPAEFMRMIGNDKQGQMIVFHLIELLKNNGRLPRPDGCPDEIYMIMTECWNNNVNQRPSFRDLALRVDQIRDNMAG
The experiment in a line: EPK JAK-family kinases profiling assay (Caliper mobility shift), JAK2. The settings on record: ATP 20 μM, 1.8 nM kinase. The format is biochemical. In a few lines:
as §1

The target in the next test is T3, GST-JAK3(811-1124) (Homo sapiens, UniProt P52333).
T3 construct: GST-JAK3(811-1124); made in house
T3 sequence (P52333 811-1124): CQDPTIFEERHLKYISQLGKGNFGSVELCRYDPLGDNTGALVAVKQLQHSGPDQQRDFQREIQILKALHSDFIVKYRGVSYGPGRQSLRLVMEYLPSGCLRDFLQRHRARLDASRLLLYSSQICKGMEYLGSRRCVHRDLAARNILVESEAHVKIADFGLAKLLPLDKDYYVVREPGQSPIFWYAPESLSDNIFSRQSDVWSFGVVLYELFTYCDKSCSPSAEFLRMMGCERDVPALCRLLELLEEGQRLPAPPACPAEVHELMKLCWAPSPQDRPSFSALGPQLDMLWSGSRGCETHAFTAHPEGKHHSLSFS
The test can be described thus: EPK JAK-family kinases profiling assay (Caliper mobility shift), JAK3. The format is biochemical. Particulars: ATP 80 μM, 6 nM kinase. In a few lines:
as §1

The next test addresses T4, GST-TYK2(888-1187) (Homo sapiens, UniProt P29597).
T4 construct: GST-TYK2(888-1187); made in house
T4 sequence (P29597 888-1187): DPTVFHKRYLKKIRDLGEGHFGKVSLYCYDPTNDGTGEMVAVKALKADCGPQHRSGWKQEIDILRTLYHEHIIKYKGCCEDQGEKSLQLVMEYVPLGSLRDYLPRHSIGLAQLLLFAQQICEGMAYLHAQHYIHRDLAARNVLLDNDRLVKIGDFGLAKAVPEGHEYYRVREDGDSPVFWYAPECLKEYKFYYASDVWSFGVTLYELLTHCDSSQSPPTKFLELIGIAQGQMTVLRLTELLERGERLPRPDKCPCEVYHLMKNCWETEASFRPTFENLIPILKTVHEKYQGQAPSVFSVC
The experiment in a line: EPK JAK-family kinases profiling assay (Caliper mobility shift), TYK2. The format is biochemical. The settings on record: ATP 30 μM, 40 nM kinase. The text has this: All four kinases of the JAK-family kinases were used as purified recombinant GST-fusion proteins, containing the active kinase domains. GST-JAK1(866-1154), GST-JAK3(811-1124), and GST-TYK2(888-1187) were expressed and purified by affinity chromatography at the EPK biology unit. GST-JAK2(808-1132) was purchased from Invitrogen (Carlsbad, USA, #4288).
The kinase assays were based on the Caliper mobility shift assay using the LabChip 3000 systems. This technology is similar to capillary electrophoresis and uses charge driven separation of substrate and product in a microfluidic chip.
All kinase reactions were performed in 384 well microtiter plates in a total reaction volume of 18 μl. The assay plates were prepared with 0.1 μl per well of test compound in the appropriate test concentration, as described under the section “preparation of compound dilutions”. The reactions were started by combining 9 μl of substrate mix (consisting of peptide and ATP) with 9 μl of kinase dilution. The reactions were incubated for 60 minutes at 30° C. and stopped by adding 70 μl of stop buffer (100 mM Hepes, 5% DMSO, 0.1% Coating reagent, 10 mM EDTA, 0.015% Brij 35).
Fluorescently labeled synthetic peptides were used as substrates in all reactions. […] Specific assay conditions are described in Table 1:
The terminated reactions were transferred to the Caliper LabChip 3000 reader and the turnover of each reaction was measured by determining the substrate/product ratio.
Test compounds were dissolved in DMSO (10 mM) and transferred into 1.4 mL flat bottom or V-shaped Matrix tubes carrying a unique 2D matrix chip by individual compound hubs. The numbers of these chips were distinctively linked to the individual compound identification numbers. The stock solutions were stored at −20° C. if not used immediately. For the test procedure the vials were defrosted and identified by a scanner whereby a working sheet was generated that guided the subsequent working steps.
Compound dilutions were made in 96 well plates. This format enabled the assay of maximally 40 individual test compounds at 8 concentrations (single points) including 4 reference compounds. The dilution protocol included the production of pre-dilution plates, master plates and assay plates:
Pre-dilution plates: 96 polypropylene well plates were used as pre-dilution plates. A total of 4 pre-dilution plates were prepared including 10 test compounds each on the plate positions A1-A10, one standard compound at A11 and one DMSO control at A12. All dilution steps were done on a HamiltonSTAR robot.
Master plates: 100 μL of individual compound dilutions including standard compound and controls of the 4 “pre-dilution plates” were transferred into a 384 “master plate” including the following concentrations 1′820, 564, 182, 54.6, 18.2, 5.46, 1.82 and 0.546 μM, respectively in 90% of DMSO.
Assay plates: Identical assay plates were then prepared by pipetting 100 nL each of compound dilutions of the master plates into 384-well “assay plates”. […] The preparation of the master plates were handled by the Matrix PlateMate Plus robot and replication of assay plates by the HummingBird robot.

T1 sequence (P23458 866-1154): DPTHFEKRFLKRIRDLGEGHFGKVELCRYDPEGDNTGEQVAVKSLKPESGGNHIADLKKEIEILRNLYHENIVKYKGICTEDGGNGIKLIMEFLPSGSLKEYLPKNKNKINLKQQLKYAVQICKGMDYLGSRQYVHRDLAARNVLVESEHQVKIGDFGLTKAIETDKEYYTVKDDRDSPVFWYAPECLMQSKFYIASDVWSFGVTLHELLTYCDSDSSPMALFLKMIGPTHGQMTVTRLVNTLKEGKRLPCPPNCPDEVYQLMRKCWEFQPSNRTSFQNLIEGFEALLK

In the case of `Cc1cc(-c2cnc3cccc(-c4cc(F)c(CN5CCS(=O)(=O)CC5)c(F)c4)c3n2)ccc1C(=O)N1CCC(N(C)C)CC1` [Example 102, (4-Dimethylamino-piperidin-1-yl)-(4-{8-[4-(1,1-dioxido-thiomorpholin-4-ylmethyl)-3,5-difluoro-phenyl]-quinoxalin-2-yl}-2-methyl-phenyl)-methanone], the IC50 in test [1] turned out to be 31.5 nM; at GST-JAK1(866-1154), 1220 nM; at GST-JAK2(808-1132), 74 nM; on GST-JAK3(811-1124) it was 5330 nM; on GST-TYK2(888-1187), 2730 nM.

For the molecule `COCCOC(=O)N1CCC(n2cc(-c3cnc4cccc(-c5cc(F)c(CN6CCOCC6)c(F)c5)c4n3)cn2)CC1` [Example 122, 4-{4-[8-(3,5-Difluoro-4-morpholin-4-ylmethyl-phenyl)-quinoxalin-2-yl]-pyrazol-1-yl}-piperidine-1-carboxylic acid 2-methoxy-ethyl ester], the IC50 on GST-JAK1(866-1154) is 475 nM; on GST-JAK2(808-1132), 9.35 nM; at GST-JAK3(811-1124), 3250 nM; at GST-TYK2(888-1187) it was 540 nM.

As for `Cc1cc(-c2cnc3cccc(-c4cc(F)c(CN5CCOCC5)c(F)c4)c3n2)ccc1C(=O)N1CCC(N(C)C)CC1` [Example 101, {4-[8-(3,5-Difluoro-4-morpholin-4-ylmethyl-phenyl)-quinoxalin-2-yl]-2-methyl-phenyl}-(4-dimethylamino-piperidin-1-yl)-methanone], the IC50 was 575 nM at GST-JAK1(866-1154), 14 nM on GST-JAK2(808-1132), 1020 nM at GST-JAK3(811-1124) and 1450 nM on GST-TYK2(888-1187).

With `Cc1cc(CN2CCS(=O)(=O)CC2)ccc1-c1cccc2ncc(-c3cnn(C4CCNCC4)c3)nc12` [Example 149, 8-[4-(1,1-Dioxido-thiomorpholin-4-ylmethyl)-2-methyl-phenyl]-2-(1-piperidin-4-yl-1H-pyrazol-4-yl)-quinoxaline], the IC50 in test [1] came to 9560 nM; on GST-JAK1(866-1154) it was 650 nM; at GST-JAK2(808-1132), 51 nM; at GST-TYK2(888-1187), 900 nM.

For the molecule `O=S1(=O)CCN(Cc2ccc(-c3cccc4ncc(-c5cnn(C6CCNCC6)c5)nc34)cc2)CC1` [Example 148, 8-[4-(1,1-Dioxido-thiomorpholin-4-ylmethyl)-phenyl]-2-(1-piperidin-4-yl-1H-pyrazol-4-yl)-quinoxaline], the IC50 amounted to 730 nM in test [1], 73 nM at GST-JAK1(866-1154), 3.4 nM at GST-JAK2(808-1132) and 110 nM at GST-TYK2(888-1187).

In the case of `CC(C)(C)OC(=O)N1CCC(n2cc(-c3cnc4cccc(-c5cc(F)c(CN6CCOCC6)c(F)c5)c4n3)cn2)CC1` [Example 136, 4-{4-[8-(3,5-Difluoro-4-morpholin-4-ylmethyl-phenyl)-quinoxalin-2-yl]-pyrazol-1-yl}-piperidine-1-carboxylic acid tert-butyl ester], the IC50 was found to be 532 nM in test [1], 290 nM on GST-JAK1(866-1154), 4.6 nM on GST-JAK2(808-1132) and 260 nM at GST-TYK2(888-1187).

Turning to `CN1CCN(c2ccc(-c3cnc4cccc(-c5ccc(CN6CCS(=O)(=O)CC6)cc5)c4n3)cn2)CC1` [Example 109, 8-[4-(1,1-Dioxido-thiomorpholin-4-ylmethyl)-phenyl]-2-[6-(4-methyl-piperazin-1-yl)-pyridin-3-yl]-quinoxaline], the IC50 turned out to be 3060 nM in test [1], 150 nM at GST-JAK1(866-1154), 24 nM at GST-JAK2(808-1132) and 360 nM on GST-TYK2(888-1187).

On to `Fc1cc(-c2cccc3ncc(-c4cnn(C5CCN(C6CC6)CC5)c4)nc23)cc(F)c1CN1CCOCC1` [Example 128, 2-[1-(1-Cyclopropyl-piperidin-4-yl)-1H-pyrazol-4-yl]-8-(3,5-difluoro-4-morpholin-4-ylmethyl-phenyl)-quinoxaline], for which the IC50 is 196 nM in test [1], 130 nM on GST-JAK1(866-1154), below 3 nM on GST-JAK2(808-1132) and 160 nM at GST-TYK2(888-1187).

`O=C(C1CC1)N1CCC(n2cc(-c3cnc4cccc(-c5cc(F)c(CN6CCOCC6)c(F)c5)c4n3)cn2)CC1` [Example 129, Cyclopropyl-(4-{4-[8-(3,5-difluoro-4-morpholin-4-ylmethyl-phenyl)-quinoxalin-2-yl]-pyrazol-1-yl}-piperidin-1-yl)-methanone]: the IC50 in test [1] was 162 nM; on GST-JAK1(866-1154), 78 nM; on GST-JAK2(808-1132) it was below 3 nM; at GST-TYK2(888-1187), 96 nM.

Regarding `Cc1cc(-c2cccc3ncc(-c4cnn(C5CCNCC5)c4)nc23)ccc1CN1CCOCC1` [Example 146, 8-(3-Methyl-4-morpholin-4-ylmethyl-phenyl)-2-(1-piperidin-4-yl-1H-pyrazol-4-yl)-quinoxaline], the IC50 was 3390 nM in test [1], 840 nM at GST-JAK1(866-1154), 9.2 nM at GST-JAK2(808-1132) and 570 nM at GST-TYK2(888-1187).

`Cc1c(-c2cnc3cccc(-c4cc(F)c(CN5CCOCC5)c(F)c4)c3n2)cnn1C1CCNCC1` [Example 125, 8-(3,5-Difluoro-4-morpholin-4-ylmethyl-phenyl)-2-(5-methyl-1-piperidin-4-yl-1H-pyrazol-4-yl)-quinoxaline]: the IC50 in test [1] was 369 nM; on GST-JAK1(866-1154) it was 310 nM; on GST-JAK2(808-1132) it was below 3 nM; on GST-TYK2(888-1187), 210 nM.

With `Fc1cc(-c2cccc3ncc(-c4cnn(C5CNC5)c4)nc23)cc(F)c1CN1CCOCC1` [Example 116, 2-(1-Azetidin-3-yl-1H-pyrazol-4-yl)-8-(3,5-difluoro-4-morpholin-4-ylmethyl-phenyl)-quinoxaline], the IC50 at GST-JAK1(866-1154) came out at 243 nM; on GST-JAK2(808-1132) it was 8 nM; at GST-JAK3(811-1124) it was 2900 nM; on GST-TYK2(888-1187), 437 nM.

Consider `Fc1cc(-c2cccc3ncc(-c4cnn(C5CCNCC5)c4)nc23)ccc1CN1CCOCC1` [Example 145, 8-(3-Fluoro-4-morpholin-4-ylmethyl-phenyl)-2-(1-piperidin-4-yl-1H-pyrazol-4-yl)-quinoxaline], for which the IC50 in test [1] is 685 nM; at GST-JAK1(866-1154), 250 nM; on GST-JAK2(808-1132) it was 10 nM; at GST-TYK2(888-1187), 300 nM.

As to `Fc1cc(-c2cccc3ncc(-c4cnn(CC5CCCNC5)c4)nc23)cc(F)c1CN1CCOCC1` (racemic) [Example 135, (rac)-8-(3,5-Difluoro-4-morpholin-4-ylmethyl-phenyl)-2-(1-piperidin-3-ylmethyl-1H-pyrazol-4-yl)-quinoxaline], the IC50 is 1350 nM in test [1], 240 nM on GST-JAK1(866-1154), 6.1 nM on GST-JAK2(808-1132) and 510 nM at GST-TYK2(888-1187).

With `Cc1cc(-c2cccc3ncc(-c4cnn(C5CCNCC5)c4)nc23)ccc1C(=O)N1CCOCC1` [Example 100, {2-Methyl-4-[3-(1-piperidin-4-yl-1H-pyrazol-4-yl)-quinoxalin-5-yl]-phenyl}-morpholin-4-yl-methanone], the IC50 stood at 12600 nM in test [1], 1400 nM at GST-JAK1(866-1154), 130 nM on GST-JAK2(808-1132) and 1200 nM at GST-TYK2(888-1187).
